Source: the supplement of paper PMC8741786
Converted amounts (≈) assume the structure as drawn.

System: Neisseria subflava/flavescens/perflava
Assay: minimum inhibitory concentration (ETEST)
Conditions: population: general population, antibiotic use in previous 6 months: No
Description: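 Oropharyngeal Neisseria isolates from MSM and employees in Belgium were identified to species by MALDI-TOF MS. MICs of azithromycin, ceftriaxone and ciprofloxacin were determined by ETEST on GC agar after 24 h at 36.5 °C and 5-7% CO2, in mg/L. Values beyond the strip range are reported as >256 (azithromycin) or <0.016 (ceftriaxone); isolates that did not grow are NA.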

CC[C@H]1OC(=O)[C@H](C)[C@@H](O[C@H]2C[C@@](C)(OC)[C@@H](O)[C@H](C)O2)[C@H](C)[C@@H](O[C@@H]2O[C@H](C)C[C@H](N(C)C)[C@H]2O)[C@](C)(O)C[C@@H](C)CN(C)[C@H](C)[C@@H](O)[C@]1(C)O [azithromycin]
Conditions | minimum inhibitory concentration [mg/L]
isolate id (sample isolate): Co000767_7 | 1.5 (≈ 2 µM)
isolate id (sample isolate): Co000768_1 | 2 (≈ 2.67 µM)
isolate id (sample isolate): Co000768_2 | 3 (≈ 4.01 µM)
isolate id (sample isolate): Co000769_1 | 4 (≈ 5.34 µM)
isolate id (sample isolate): Co000769_2 | 2 (≈ 2.67 µM)
isolate id (sample isolate): Co000769_4 | 4 (≈ 5.34 µM)
isolate id (sample isolate): Co000770_2 | 2 (≈ 2.67 µM)
isolate id (sample isolate): Co000770_4 | 4 (≈ 5.34 µM)
isolate id (sample isolate): Co000770_6 | 3 (≈ 4.01 µM)
isolate id (sample isolate): Co000771_2 | 6 (≈ 8.01 µM)
isolate id (sample isolate): Co000771_3 | 6 (≈ 8.01 µM)
isolate id (sample isolate): Co000771_5 | 3 (≈ 4.01 µM)
isolate id (sample isolate): Co000772_1 | 2 (≈ 2.67 µM)
isolate id (sample isolate): Co000772_2 | 3 (≈ 4.01 µM)
isolate id (sample isolate): Co000772_4 | 4 (≈ 5.34 µM)
isolate id (sample isolate): Co000772_5 | 3 (≈ 4.01 µM)
isolate id (sample isolate): Co000772_6 | 4 (≈ 5.34 µM)
isolate id (sample isolate): Co000773_1 | 2 (≈ 2.67 µM)
isolate id (sample isolate): Co000773_2 | 3 (≈ 4.01 µM)
isolate id (sample isolate): Co000774_2 | 3 (≈ 4.01 µM)
isolate id (sample isolate): Co000775_1 | 2 (≈ 2.67 µM)
isolate id (sample isolate): Co000775_2 | 4 (≈ 5.34 µM)
isolate id (sample isolate): Co000775_3 | 0.094 (≈ 0.126 µM)
isolate id (sample isolate): Co000776_2 | 32 (≈ 42.7 µM)
isolate id (sample isolate): Co000776_3 | 24 (≈ 32 µM)
isolate id (sample isolate): Co000777_1 | 2 (≈ 2.67 µM)
isolate id (sample isolate): Co000777_2 | 0.25 (≈ 0.334 µM)
isolate id (sample isolate): Co000777_4 | > 256
isolate id (sample isolate): Co000778_1 | 3 (≈ 4.01 µM)
isolate id (sample isolate): Co000778_2 | 2 (≈ 2.67 µM)
isolate id (sample isolate): Co000778_3 | 4 (≈ 5.34 µM)
isolate id (sample isolate): Co000780_4 | 2 (≈ 2.67 µM)
isolate id (sample isolate): Co000781_1 | 1.5 (≈ 2 µM)
isolate id (sample isolate): Co000781_3 | 4 (≈ 5.34 µM)
isolate id (sample isolate): Co000781_4 | 3 (≈ 4.01 µM)
isolate id (sample isolate): Co000782_2 | 8 (≈ 10.7 µM)
isolate id (sample isolate): Co000782_3 | 8 (≈ 10.7 µM)
isolate id (sample isolate): Co000782_4 | 8 (≈ 10.7 µM)
isolate id (sample isolate): Co000783_1 | 4 (≈ 5.34 µM)
isolate id (sample isolate): Co000783_2 | 1.5 (≈ 2 µM)
isolate id (sample isolate): Co000783_5 | 2 (≈ 2.67 µM)
isolate id (sample isolate): Co000784_1 | 1.5 (≈ 2 µM)
isolate id (sample isolate): Co000784_2 | 4 (≈ 5.34 µM)
isolate id (sample isolate): Co000784_5 | 4 (≈ 5.34 µM)
isolate id (sample isolate): Co000785_1 | 1 (≈ 1.34 µM)
isolate id (sample isolate): Co000785_2 | 1.5 (≈ 2 µM)
isolate id (sample isolate): Co000785_3 | 2 (≈ 2.67 µM)
isolate id (sample isolate): Co000785_4 | 1 (≈ 1.34 µM)
isolate id (sample isolate): Co000786_1 | 2 (≈ 2.67 µM)
isolate id (sample isolate): Co000786_2 | 4 (≈ 5.34 µM)
isolate id (sample isolate): Co000787_1 | 2 (≈ 2.67 µM)
isolate id (sample isolate): Co000787_2 | 6 (≈ 8.01 µM)
isolate id (sample isolate): Co000787_4 | 6 (≈ 8.01 µM)
isolate id (sample isolate): Co000788_2 | 3 (≈ 4.01 µM)
isolate id (sample isolate): Co000788_3 | 3 (≈ 4.01 µM)
isolate id (sample isolate): Co000788_5 | 3 (≈ 4.01 µM)
isolate id (sample isolate): Co000789_1 | 6 (≈ 8.01 µM)
isolate id (sample isolate): Co000790_2 | 1 (≈ 1.34 µM)
isolate id (sample isolate): Co000790_4 | 1.5 (≈ 2 µM)
